Measurements: patent US20250122174A1 (Shenzhen Yuanli Shenwan Innovative Medicine Co., Ltd., priority 2022, published 2025)
pIC50: −log10 of the molar value. Structures can show the parent of a compound that is named as a salt.

target: HPK1 (Homo sapiens (Human), UniProt Q92918); assay: HPK1 Inhibition Assay (ADP-Glo kinase assay); format: biochemical; conditions: ATP 10 μM
In short: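 ADP-Glo luminescence read-out after 1 h room-temperature kinase reaction with 10 μM ATP and 0.1 μg/ml MBP. Recombinant human HPK1 at 7.5 ng/μl; buffer 40 mM Tris pH 7.5, 20 mM MgCl2. Compounds serially diluted 5-fold over 10 points from 10 mM DMSO stock.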

Chain of HPK1 (Q92918 1-346 limits assumed): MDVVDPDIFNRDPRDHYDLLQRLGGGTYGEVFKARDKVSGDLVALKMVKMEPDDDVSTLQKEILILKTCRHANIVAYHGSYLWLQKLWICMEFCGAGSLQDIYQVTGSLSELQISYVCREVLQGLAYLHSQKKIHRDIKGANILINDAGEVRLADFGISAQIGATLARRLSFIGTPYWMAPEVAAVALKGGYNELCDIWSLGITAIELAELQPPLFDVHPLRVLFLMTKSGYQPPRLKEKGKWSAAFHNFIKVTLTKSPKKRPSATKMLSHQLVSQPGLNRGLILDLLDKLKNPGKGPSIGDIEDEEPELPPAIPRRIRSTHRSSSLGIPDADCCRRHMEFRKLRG

SMILES | pIC50
CC(C)n1ncc2c(N3CCC(N)CC3)c(NC(=O)c3ccc(=O)n(-c4c(F)cccc4F)n3)cc(F)c21 [Example 217, N-(4-(4-aminopiperidin-1-yl)-7-fluoro-1-isopropyl-1H-indazol-5-yl)-1-(2,6-difluorophenyl)-6-oxo-1,6-dihydropyridazine-3-carboxamide] | > 7.00
C[C@@H]1CN(c2c(NC(=O)c3ccc(=O)n(-c4c(F)cccc4F)n3)ccc3c2cnn3C)C[C@@H]1N [Example 166, N-[4-[(3R,4R)-3-amino-4-methyl-pyrrolidin-1-yl]-1-methyl-indazol-5-yl]-1-(2,6-difluorophenyl)-6-oxo-pyridazine-3-carboxamide] | > 7.00
CC(C)n1ncc2c(N3C[C@@H](C)[C@@H](NCCO)C3)c(NC(=O)c3ccc(=O)n(-c4c(F)cccc4F)n3)ccc21 [Example 214, 1-(2,6-difluorophenyl)-N-(4-((3R,4R)-3-((2-hydroxyethyl)amino)-4-methylpyrrolidin-1-yl)-1-isopropyl-1H-indazol-5-yl)-6-oxo-1,6-dihydropyridazine-3-carboxamide] | > 7.00
N#Cc1ccncc1-c1ccc(NC(=O)c2ccc(=O)n(-c3c(F)cccc3F)n2)c(N2CCC(N)CC2)c1 [Example 346, N-(2-(4-aminopiperidin-1-yl)-4-(4-cyanopyridin-3-yl)phenyl)-1-(2,6-difluorophenyl)-6-oxo-1,6-dihydropyridazine-3-carboxamide] | > 7.00
CC(C)n1nc(F)c2c(N3C[C@H](N)C4(CC4)C3)c(NC(=O)c3ccc(=O)n(-c4c(F)cccc4F)n3)ccc21 [Example 199, (R)-N-(4-(7-amino-5-azaspiro[2.4]heptan-5-yl)-3-fluoro-1-isopropyl-1H-indazol-5-yl)-1-(2,6-difluorophenyl)-6-oxo-1,6-dihydropyridazine-3-carboxamide] | 6.00 to 7.00
Cc1nc2c(N3CC[C@H](N)C3)c(NC(=O)c3ccc(=O)n(-c4c(F)cccc4F)n3)ccc2n1C1CCOCC1 [Example 88, (S)-N-(4-(3-aminopyrrolidin-1-yl)-2-methyl-1-(tetrahydro-2H-pyran-4-yl)-1H-benzo[d]imidazol-5-yl)-1-(2,6-difluorophenyl)-6-oxo-1,6-dihydropyridazine-3-carboxamide] | > 7.00
N[C@@H]1CCN(c2c(NC(=O)c3ccc(=O)n(-c4c(F)cccc4F)n3)ccc3nn(CC4CC4)cc23)C1 [Example 330, (R)-N-(4-(3-aminopyrrolidin-1-yl)-2-(cyclopropylmethyl)-2H-indazol-5-yl)-1-(2,6-difluorophenyl)-6-oxo-1,6-dihydropyridazine-3-carboxamide] | > 7.00
COc1cccc(F)c1-c1cccc(C(=O)Nc2ccc3c(cnn3C)c2N2C[C@H]3C[C@@H]2CN3)[n+]1[O-] [Example 56, 2-((4-((1R,4R)-2,5-diazabicyclo[2.2.1]heptan-2-yl)-1-methyl-1H-indazol-5-yl)carbamoyl)-6-(2-fluoro-6-methoxyphenyl)pyridine 1-oxide] | > 7.00
COc1cccc(F)c1-n1cccc(C(=O)Nc2ccc3c(nc(C)n3C)c2N2CCC[C@H]2CN)c1=O [Example 54, (S)-N-(4-(2-(aminomethyl)pyrrolidin-1-yl)-1,2-dimethyl-1H-benzo[d]imidazol-5-yl)-1-(2-fluoro-6-methoxyphenyl)-2-oxo-1,2-dihydropyridine-3-carboxamide] | > 7.00
CC(C)n1nc2c(F)cc(NC(=O)c3ccc(=O)n(-c4c(F)cccc4F)n3)c(N3CC[C@@H](N)C3)c2c1Cl [Example 223, (R)-N-(4-(3-aminopyrrolidin-1-yl)-3-chloro-7-fluoro-2-isopropyl-2H-indazol-5-yl)-1-(2,6-difluorophenyl)-6-oxo-1,6-dihydropyridazine-3-carboxamide] | > 7.00
CC[C@@H]1CN(c2c(NC(=O)c3ccc(=O)n(-c4c(F)cccc4F)n3)cc(F)c3c2cnn3C(C)C)C[C@@H]1N [Example 216, N-(4-((3R,4R)-3-amino-4-ethylpyrrolidin-1-yl)-7-fluoro-1-isopropyl-1H-indazol-5-yl)-1-(2,6-difluorophenyl)-6-oxo-1,6-dihydropyridazine-3-carboxamide] | > 7.00
COc1cccc(F)c1-c1nccc(C(=O)Nc2ccc3c(nc(C)n3C)c2N2CCC[C@H]2CO)c1F [Example 9, 3-fluoro-2-(2-fluoro-6-methoxyphenyl)-N-(4-((S)-2-(hydroxymethyl)pyrrolidin-1-yl)-1,2-dimethyl-1H-benzo[d]imidazol-5-yl)isonicotinamide] | 6.00 to 7.00
Cc1nc2c(N3CC[C@H](N)C3)c(NC(=O)c3ccnn(-c4c(F)cccc4F)c3=O)ccc2n1C1CCOCC1 [Example 47, (S)—N-(4-(3-aminopyrrolidin-1-yl)-2-methyl-1-(tetrahydro-2H-pyran-4-yl)-1H-benzo[d]imidazol-5-yl)-2-(2,6-difluorophenyl)-3-oxo-2,3-dihydropyridazine-4-carboxamide trifluoroacetate] | 6.00 to 7.00
CC(C)n1nc(Cl)c2c(N3CC[C@@H](N)C3)c(NC(=O)c3ccc(=O)n(-c4c(F)cccc4F)n3)cc(F)c21 [Example 190, (R)-N-(4-(3-aminopyrrolidin-1-yl)-3-chloro-7-fluoro-1-isopropyl-1H-indazol-5-yl)-1-(2,6-difluorophenyl)-6-oxo-1,6-dihydropyridazine-3-carboxamide] | > 7.00
CC(C)n1ncc2c(N3CC[C@H](N)C3)c(NC(=O)c3ccc(=O)n(-c4c(F)cccc4F)n3)ccc21 [Example 207, (S)-N-(4-(3-aminopyrrolidin-1-yl)-1-isopropyl-1H-indazol-5-yl)-1-(2,6-difluorophenyl)-6-oxo-1,6-dihydropyridazine-3-carboxamide] | > 7.00
COc1cccc(F)c1-c1cccc(C(=O)Nc2cc(F)c3nn(C)cc3c2N2C[C@@H](N)C[C@H]2CO)[n+]1[O-] [Example 63, 2-((4-((2S,4S)-4-amino-2-(hydroxymethyl)pyrrolidin-1-yl)-7-fluoro-2-methyl-2H-indazol-5-yl)carbamoyl)-6-(2-fluoro-6-methoxyphenyl)pyridine 1-oxide] | > 7.00
CC(C)n1ncc2c(N3C[C@@H](N)C(C)(C)C3)c(NC(=O)c3ccc(=O)n(-c4c(F)cccc4F)n3)ccc21 [Example 187, (S)-N-(4-(4-amino-3,3-dimethylpyrrolidin-1-yl)-1-isopropyl-1H-indazol-5-yl)-1-(2,6-difluorophenyl)-6-oxo-1,6-dihydropyridazine-3-carboxamide] | > 7.00
[2H]C([2H])([2H])C([2H])(n1ncc2c(N3C[C@@H](N)C(C)(C)C3)c(NC(=O)c3ccc(=O)n(-c4c(F)cccc4F)n3)ccc21)C([2H])([2H])[2H] [Example 282, (S)-N-(4-(4-amino-3,3-dimethylpyrrolidin-1-yl)-1-(propan-2-yl-d7)-1H-indaozl-5-yl)-1-(2,6-difluorophenyl)-6-oxo-1,6-dihydropyridazine-3-carboxamide] | > 7.00
CC(C)n1ncc2c(N3C[C@H]4CNC[C@H]4C3)c(NC(=O)c3ccc(=O)n(-c4c(F)cccc4F)n3)cc(F)c21 [Example 219, 1-(2,6-difluorophenyl)-N-(7-fluoro-4-((3aR,6aS)-hexahydropyrrolo[3,4-c]pyrrol-2(1H)-yl)-1-isopropyl-1H-indazol-5-yl)-6-oxo-1,6-dihydropyridazine-3-carboxamide] | > 7.00
